Data taken from patent US8071575B2, “Methods and compounds for the targeted delivery of agents to bone for interaction therewith” (priority 2007, dated 2011).

Key:
[1] = Hydroxyapatite (HA) Binding Assay; settings: 10^−5 M analyte, 50 mM Tris-HCl pH 7.4, 1% DMSO; adjusted such that tetracycline = 100
Procedure: A Hydroxyapatite (HA) Binding Assay is used to determine whether compounds have an affinity for bone. Compounds of the presently-disclosed subject matter having a Bone Targeting Portion (RT) are studied using the HA Binding Assay. A 10^−3 M solution of each analyte was made in 100% dimethylsulfoxide (DMSO). A 100 fold dilution was then made to form a 10^−5 M solution in 50 mM Tris-HCl buffer, pH 7.4, 1% DMSO. Tetracycline was used as a reference analyte and approximately 50% was adsorbed to HA at the concentration of 10^−5 M. The HA slurry was 0.5 g/100 mL 50 mM Tris-HCl buffer, 1% DMSO.
For each analyte, two samples were prepared. For one sample, 1 mL of 10^−5 M analyte and 100 μL 50 mM Tris-HCl buffer, 1% DMSO was pipetted into a microcentrifuge tube. For the second sample, 1 mL of 10^−5 M analyte and 100 μL of the HA slurry was pipetted into a microcentrifuge tube. The samples were mixed gently by inversion for 4 minutes and then centrifuged at 12,000 g for 3 minutes to sediment the HA contained in those samples. The supernatant was transferred to another microcentrifuge tube.
An electronic spectral scan (ultraviolet-visible) from 220-520 nm was obtained for each analyte using a Varian Cary 300 Bio Scan. The blank was 50 mM Tris-HCl buffer, 1% DMSO. The wavelength of maximum absorbance (λmax) was determined, and the extinction coefficient (ε) was calculated using the Beer-Lambert Law.
The absorbance of the samples incubated with HA was measured at λmax, and the molar concentration of the analyte was then determined using the Beer-Lambert Law and the previously calculated extinction coefficient. The fraction adsorbed to HA for each sample was subsequently calculated.

[2] = Body weight of OVX rats during treatment; format: in vivo, Sprague-Dawley female rats; settings: oral 3000 μg/kg, three times per week for 6 weeks
Procedure: (§1) Animals. Six month old, bilaterally ovariectomized (OVX) or sham operated Sprague-Dawley female rats (Harlan Laboratories, Indianapolis, Ind.) were maintained at the University of Louisville Research Resources Center at 22° C. with a 12-h light/dark cycle and ad libitum access to tap water and rodent chow (Purina Laboratory Rodent Diet 5001). All animal procedures were approved by the Institutional Animal Care and Use Committee, which is certified by the American Association for Accreditation of Laboratory Animal Care.
In vivo experiments were conducted in order to investigate the efficacy of compounds of the presently-disclosed subject matter. In all of the experiments, OVX and sham operated rats were randomly divided into groups of 5-7 animals. In all of the studies experimental groups included: i) Sham-operated control (euthanized six weeks post surgery as a pretreatment control), ii) OVX control (euthanized six weeks post surgery as a pretreatment control), iii) Sham control receiving vehicle, iv) OVX control receiving vehicle, v) OVX receiving 17-ethinyl estradiol (equimolar concentration with a selected test compound), vi) OVX receiving alendronate (1.6 mg/kg), and vii) OVX receiving parathyroid hormone 1-34 (PTH) ([…]). 17-ethinyl estradiol (17 EE) is a free estrogenic agent known to be orally active, and can serve as an example of an anti-catabolic agent. […]

OVX rats [3] = test: Uterine mass and uterine mass to body weight ratio in OVX rats; format: in vivo, Sprague-Dawley female rats; settings: OVX rats, oral 3000 μg/kg; compared to animals treated with 17-ethinyl estradiol
Procedure: as §1
In vivo experiments were conducted in order to investigate the efficacy of compounds of the presently-disclosed subject matter. In all of the experiments, OVX and sham operated rats were randomly divided into groups of 5-7 animals. In all of the studies experimental groups included: i) Sham-operated control (euthanized six weeks post surgery as a pretreatment control), ii) OVX control (euthanized six weeks post surgery as a pretreatment control), iii) Sham control receiving vehicle, iv) OVX control receiving vehicle, v) OVX receiving 17-ethinyl estradiol (equimolar concentration with a selected test compound), vi) OVX receiving alendronate (1.6 mg/kg), and vii) OVX receiving parathyroid hormone 1-34 (PTH) ([…]). 17-ethinyl estradiol (17 EE) is a free estrogenic agent known to be orally active, and can serve as an example of an anti-catabolic agent. Alendronate (Alen) is a bisphosphonate that is currently used to treat osteoporosis (e.g., Fosamax®, Merck & Co., Inc,), and can serve as an example of an anti-catabolic agent. Parathyroid hormone 1-34 (PTH) is an agent that can serve as an example of an anabolic agent. All compounds and vehicle (1% DMSO in corn oil) were administered three times per week orally by gavage except for PTH which was administered via a subcutaneous injection in a volume of 0.5 ml/kg body mass thrice per week. Compound administration was initiated 6 weeks following surgery and lasted for 6 weeks (18 doses total).
Compounds of the presently-disclosed subject matter were orally administered to OVX rats at various doses. As indicated above all BTE's were administered three times per week for 6 weeks.
Following 6 weeks of treatment, blood was obtained from each animal via cardiac puncture following an overnight fast and animals were subsequently euthanized via carbon dioxide asphyxiation. Blood was centrifuged immediately and the obtained serum samples were aliquoted and stored at −70° C. prior to analysis. Uteri were removed and fresh weights were obtained. Uterine masses were normalized to body mass at the end of the experiment. The left and right femora and left and right tibiae were subsequently collected from each animal, cleaned of soft tissue, and stored in saline at 4° C. prior to analysis.
Uterine Mass and Body Weight. […] Uterine mass can be used to as a measure of estrogenic effect occurring in a tissue outside the bone in response to treatment with a test compound or composition. Generally, a lower uterine mass can be associated with a decreased risk of adverse side effects associated with the test compound or composition. A ratio of uterine mass to body weight can be used to correct for any increase in uterine size attributable to the relative size of the individual animal. Body weight and/or uterine mass also serve as an indirect measures of toxicity of a test compound.

OVX rats [4] = test: Rat Osteocalcin EIA (serum); format: in vivo, Sprague-Dawley female rats; settings: 100 or 1000 μg/kg doses
Procedure: as §1
In vivo experiments were conducted in order to investigate the efficacy of compounds of the presently-disclosed subject matter. In all of the experiments, OVX and sham operated rats were randomly divided into groups of 5-7 animals. […]
Rat Osteocalcin EIA. […] Rat serum osteocalcin levels were measured using the Rat Osteocalcin EIA Kit from Biomedical Technologies, Incorporated (Stoughton, Mass.) as recommended by the manufacturer.

Structure (SMILES) | Binding Index (binding to hydroxyapatite) [1] | body weight [2] | ratio of uterine mass to body weight (OVX rats [3]) | uterine mass (OVX rats [3]) | serum osteocalcin levels (OVX rats [4])
COc1ccc(NC(=O)CCC(=O)OC2CCC3C4CCC5=CC(=O)CCC5(C)C4CCC23C)c(O)c1C(N)=O (stereo not drawn) [Formula 33] | 140 | lower body weights as compared to the OVX animals | lower | lower | –
COc1ccc(NC(=O)COCCOCCNC(=O)CCOC2CCC3C4CCc5cc(O)ccc5C4CCC23C)c(O)c1C(N)=O (stereo not drawn) [Formula 123] | 160 | – | – | – | stimulates osteocalcin
